Data as given in patent publication US20120003661A1, “METHODS AND DEVICES FOR THE SELECTIVE DETECTION OF MICROORGANISMS” (C3 JIAN, INC., priority 2010, published 2012).
Entries after “also recorded” stand apart in the source; their conditions may differ. Where two headings read alike, the source gives them in different places.

Test system: bacteria, fungi, and/or yeasts
Format: binding
[1] = microorganism(s) the targeting peptide binds, as listed in Table 2
[2] = microorganism(s) listed as target(s) of the targeting peptide, wrapped target lists given cell by cell
[3] = microorganism(s) that the targeting peptide binds, as listed in Table 2

Row | Substance | Target(s) [1] | Target(s) [2] | further results
1 | 1T-156 (GRFQISIRGEEKSKVKVQGKGTFTDRNTT) | A. naeslundii, F. nucleatum, P. gingivalis,; also recorded: T. denticola, S. gordonii,; also recorded: S. mitis, S. mutans, S. oralis,; also recorded: S. salivarious, S. sanguinis |  | 
2 | PF-029 (NSTNE) |  | S. epidermidis, M. luteus, C. albicans,; also recorded: C. jejuni | 
3 | PF-051 (RFFNFEIKKSTKVDYVFAHVDLSDV) |  | C. albicans hyphae; also recorded: S. epidermidis, M. luteus, P. aeruginosa,; also recorded: C. albicans, MRSA,; also recorded: S. pneumoniae, E. faecalis | 
4 | PF-790 (PAGPDHLDQRDHR) |  |  | Target(s) [3]: Mycobacteria spp.
5 | 1T-162 (QKAKEESDRKAAVSYNGFHRVNVVSIPK) | A. naeslundii, F. nucleatum, P. gingivalis,; also recorded: T. denticola, S. gordonii,; also recorded: S. mitis, S. mutans, S. oralis,; also recorded: S. salivarious, S. sanguinis |  | 
6 | 1T-292 (IINQLNLILLRLMEILIL) |  | A. naeslundii, F. nucleatum, P. gingivalis,; also recorded: S. epidermidis, S. gordonii,; also recorded: S. mitis, S. mutans, S. oralis,; also recorded: S. salivarious, S. sanguinis | 
7 | 1T-226 (KLQEKQIDRNFERVSGYSTYRAVQAAKAKEKGFISLEN) | A. naeslundii, F. nucleatum, S. epidermidis,; also recorded: S. gordonii, S. mitis,; also recorded: S. mutans, S. oralis, S. salivarious,; also recorded: S. sanguinis |  | 
8 | 1T-100 (LDPLEPRIAPPGDRSHQGAPACHRDPLRGRSARDAER) | S. gordonii, S. mitis, S. mutans |  | 
9 | PF-C063 (SHFRKGD) |  |  | Target(s) [3]: A. naeslundii, F. nucleatum, S. mutans
10 | PF-129 (MKLLARDPWVCAWNDIW) |  | S. epidermidis, MRSA, E. faecalis,; also recorded: C. jeikeium, C. jejuni | 
11 | PF-064 (DYYGKE) |  | E. coli | 
12 | 1T-260 (NILYFIHDENQWEPQKAEIFRGSIKHCAWLSS) |  | A. naeslundii, P. gingivalis, S. epidermidis,; also recorded: S. gordonii, S. mitis,; also recorded: S. mutans, S. oralis, S. sanguinis | 
13 | PF-052 (QELINEAVNLLVKSK) |  | S. epidermidis, M. luteus, E. coli,; also recorded: MRSA, E. faecalis, C. jeikeium,; also recorded: C. jejuni | 
14 | 1T-14 (ALAGLAGLISGK) | S. mutans, S. aureus, S. epidermidis,; also recorded: C. xerosis | yeast and hyphal forms | 
15 | PF-X (TFFRLFNRSFTQALGK) |  |  | Target(s) [3]: S. mutans
16 | 1T-57 (RLEYRRLETQVEENPESGRRPMRG) | P. aeruginosa |  | 
17 | 1T-269 (PLYVAAVEKINTAKKH) |  | F. nucleatum, S. mutans, S. oralis,; also recorded: S. sanguinis | 
18 | PF-063 (IAAIIVLVLFQKGLLQIFNWILIQLQ) |  | S. epidermidis, M. luteus, E. coli,; also recorded: P. aeruginosa, MRSA, S. pneumoniae,; also recorded: E. faecalis, C. jeikeium,; also recorded: C. jejuni | 
19 | 1T-273 (YNEPNYKWLESYKIYKQRCEDRTGMYYTEET) |  | F. nucleatum, P. gingivalis, T. denticola,; also recorded: S. mitis, S. mutans, S. oralis | 
20 | 1T-7 (SQRIIEPVKSPQPYPGFSVS) | M. xanthus |  | 
21 | PF-017 (ESIIE) |  | E. coli | 
22 | 1T-119 (SPATQKAPTRAQPSRAPVQDCGDGRPTAAPDDVERLSPR) | S. gordonii, S. mitis, S. mutans,; also recorded: S. oralis |  | 
23 | 1T-174 (SGGSDTDGSSSGEPGSHSGDL) | A. naeslundii, F. nucleatum, P. gingivalis,; also recorded: T. denticola, S. gordonii,; also recorded: S. mitis, S. mutans, S. oralis,; also recorded: S. salivarious, S. sanguinis |  | 

Row | Substance | Target(s) [1] | Target(s) [2] | further results
24 | PF-787 (MTERQRRALLKQHPEVVSWSDYLEKRKRRTGTAG) |  |  | Target(s) [3]: Mycobacteria spp.
25 | PF-034 (EPKKKHFPKMESASSEP) |  | M. luteus | 
26 | PF-W (FIDSFIRSF) |  |  | Target(s) [3]: S. mutans
27 | 1T-155 (LKLAFGVYPFQAMSQSDTAVSERNVLWR) | A. naeslundii, F. nucleatum, P. gingivalis,; also recorded: S. epidermidis, S. gordonii,; also recorded: S. mitis, S. mutans, S. oralis,; also recorded: S. salivarious, S. sanguinis |  | 
28 | 1T-230 (EFLEKFKVLKQPRKANNISKNRVAMIFLTIHKSRGFLSSPY) | A. naeslundii, F. nucleatum, P. gingivalis,; also recorded: S. epidermidis, S. gordonii,; also recorded: S. mitis, S. mutans, S. oralis,; also recorded: S. salivarious, S. sanguinis |  | 
29 | PF-V (KFINGVLSQFVLERK) |  |  | Target(s) [3]: S. mutans
30 | PF-132 (RPGDGAAEQGRSR) |  | S. epidermidis, C. jeikeium | 
31 | TT-309 (EPLPLTKYDKKDTEMKKVFKEILAGKVGYEKEEE) |  | F. nucleatum | 
32 | PF-785 (MRPQHSPAGKAFVVKKITHEQS) |  |  | Target(s) [3]: Mycobacteria spp.
33 | 1T-149 (SVRAVKPIDETVARHFPGDFIVN) | A. naeslundii, F. nucleatum, P. gingivalis,; also recorded: T. denticola, S. gordonii,; also recorded: S. mitis, S. mutans, S. oralis,; also recorded: S. salivarious, S. sanguinis |  | 
34 | PF-C273 (KNMLKRRMKQKRLFDEEDRLRVLSKYTKSYY) |  |  | Target(s) [3]: A. naeslundii, P. gingivalis, S. mutans,; also recorded: T. denticola
35 | PF-004 (ARLSKAIIIAVIVVYHLDVRGLF) |  | S. epidermidis, B. subtilis, B. fragilis,; also recorded: E. coli, P. aeruginosa, C. albicans,; also recorded: S. pneumoniae, E. faecalis,; also recorded: C. jeikeium | 
36 | PF-C069 (NALMLREMQLAKNIKVEVTDVLSNKKYC) |  |  | Target(s) [3]: A. naeslundii, F. nucleatum, P. gingivalis,; also recorded: S. mutans, T. denticola
37 | PF-C180 (TVEELDKAFTWGAAAALAIGVIAINVGLAAGYCYNNNDVF) |  |  | Target(s) [3]: F. nucleatum, P. gingivalis, S. mutans,; also recorded: T. denticola
38 | 1T-233 (TDQELEHLIVTELESKRLDFTYSKDITEFFDEAFPEYDQNY) | A. naeslundii, P. gingivalis, S. epidermidis,; also recorded: S. gordonii, S. mitis,; also recorded: S. mutans, S. oralis, S. salivarious,; also recorded: S. sanguinis |  | 
39 | PF-C052 (SRFRNGV) |  |  | Target(s) [3]: A. naeslundii, F. nucleatum, S. mutans
40 | PF-010 (MDIDVNKLLQAFVYFKSFEKLRHNNS) |  | S. epidermidis, M. luteus, E. coli,; also recorded: C. albicans | 
41 | PF-C086 (ELFFTILSDCNELFLLHLLQQPLFYIKKGK) |  |  | Target(s) [3]: A. naeslundii, F. nucleatum, P. gingivalis,; also recorded: S. mutans, T. denticola
42 | PF-C057 (YFWWYWVQDCIPYKNNEVWLELSNNMK) |  |  | Target(s) [3]: A. naeslundii, F. nucleatum, P. gingivalis,; also recorded: S. mutans
43 | 1T-196 (KPEKEKLDTNTLMKVVNKALSLFDRLLIKFGA) | F. nucleatum, S. sanguinis |  | 
44 | 1T-164 (KKSHSQGKRKLKDLNSAYKIDNQLHYALR) | A. naeslundii, F. nucleatum, P. gingivalis,; also recorded: S. epidermidis, S. gordonii,; also recorded: S. mitis, S. mutans, S. oralis,; also recorded: S. salivarious, S. sanguinis |  | 
45 | 1T-9 (WAWAESPRCVSTRSNIHALAFRVEVAALT) | M. xanthus |  | 
46 | 1T-122 (GAIPDPVTHRVDWEEDHQTRPSR) | S. mitis |  | 

Row | Substance | Target(s) [1] | Target(s) [2] | further results
47 | PF-C058 (FETGFGDGYYMSLWGLNEKDEVCKVVIPFINPELID) |  |  | Target(s) [3]: A. naeslundii, F. nucleatum, P. gingivalis,; also recorded: S. mutans
48 | PF-799 (YTHYNTALSYALLLTNKSSVP) |  |  | Target(s) [3]: S. mutans
49 | PF-020 (MKIILLLFLIFGFIVVVTLKSEHQLTLFSI) |  | S. epidermidis, M. luteus, C. albicans,; also recorded: MRSA, S. pneumoniae,; also recorded: E. faecalis | 
50 | 1T-181 (YGKESDP) | A. naeslundii, F. nucleatum, P. gingivalis,; also recorded: T. denticola, S. gordonii,; also recorded: S. mitis, S. mutans, S. oralis,; also recorded: S. salivarious, S. sanguinis |  | 
51 | PF-099 (EIIAYLEGRFANA) |  | S. epidermidis, M. luteus, E. coli,; also recorded: C. jeikeium | 
52 | PF-040 (MIHLTKQNTMEALHFIKQFYDMFFILNFNV) |  | C. albicans hyphae; also recorded: S. epidermidis, M. luteus, P. mirabilis,; also recorded: E. coli, P. aeruginosa,; also recorded: C. albicans, MRSA, S. pneumoniae,; also recorded: E. faecalis, C. jeikeium,; also recorded: C. jejuni | 
53 | 1T-11 (RISE) | S. mutans, S. epidermidis, P. aeruginosa |  | 
54 | PF-C285 (FTIIELKKQKIKHGENNKKTAHPLNEPFCARA) |  |  | Target(s) [3]: A. naeslundii, F. nucleatum, P. gingivalis,; also recorded: S. mutans, T. denticola
55 | 1T-51 (GKPKRMPAEFIDGYGQALLAGA) | S. aureus, P. aeruginosa |  | 
56 | 1T-219 (RNINVSATFITEKSLV) | S. sanguinis |  | 
57 | PF-621 (PPSSFLV) |  | yeast and hyphal forms | 
58 | 1T-110 (LAAKTAVCVGRAFM) | A. naeslundii, P. gingivalis, S. epidermidis,; also recorded: S. gordonii, S. mitis,; also recorded: S. mutans, S. oralis, S. sanguinis |  | 
59 | 1T-250 (LVQGDTILIENHVGTPVKDDGKDCLIIREADVLAVVND) |  | S. mitis, S. mutans, S. oralis | 
60 | TT-310 (TKLKKNNKLLSAKKENTLHTKDK) |  | F. nucleatum, | 
61 | 1T-218 (KLIFAALGLVFLLIGLRDSRSK) | F. nucleatum, S. sanguinis |  | 
62 | 1T-75 (GVARGLQLGIKTRTQWGAATGAA) | S. pneumoniae |  | 
63 | PF-066 (IKGTVKAVDETTVVITVNGHGTELTFEKPAIKQVDPS) |  | M. luteus, E. coli, C. jeikeium | 
64 | PF-631 (LIIYFSKTGNTARATRQI) |  | yeast and hyphal forms | 
65 | PF-174 (RGGDSPARRRPGLAGPGGPG) |  | S. epidermidis, P. aeruginosa, C. jeikeium | 
66 | PF-150 (EIQAKGTG) |  | S. epidermidis, MRSA | 
67 | 1T-46 (FSFKQRVMFRKEVERLR) | S. aureus, S. epidermidis, C. jeikeium,; also recorded: C. xerosis, C. striatum,; also recorded: P. aeruginosa |  | 
68 | 1T-71 (KIDTNQWPPNKEG) | P. aeruginosa |  | 
